Reference: the NIST ThermoML archive (doi:10.1021/je300775u)
Values joined by “and” are separate entries in the source; they are usually repeats but may differ in a detail not shown here. Equal entries are not always repeated. Numbers after ± are expanded uncertainties.

Assays:
[1] = 101.3 kPa, Liquid; for speed of sound: Pulse-echo method; for mass density: Vibrating tube method
[2] = xn = mol fraction of the nth substance listed; conditions: 101 kPa, Liquid; for speed of sound: Pulse-echo method; for mass density: Vibrating tube method

Row | Compound | speed of sound ([1]; 293.15 K) | mass density ([1]; 293.15 K) [kg/m3] | speed of sound ([1]; 298.15 K) | mass density ([1]; 298.15 K) [kg/m3] | speed of sound ([1]; 303.15 K) | mass density ([1]; 303.15 K) [kg/m3] | speed of sound ([1]; 308.15 K) | mass density ([1]; 308.15 K) [kg/m3] | speed of sound ([1]; 313.15 K) | mass density ([1]; 313.15 K) [kg/m3] | speed of sound ([2]; 293.15 K, x2 = 0) [m/s] | mass density ([2]; 293.15 K, x2 = 0) [kg/m3] | speed of sound ([2]; 298.15 K, x2 = 0) [m/s] | mass density ([2]; 298.15 K, x2 = 0) [kg/m3] | speed of sound ([2]; 303.15 K, x2 = 0) [m/s] | mass density ([2]; 303.15 K, x2 = 0) [kg/m3] | speed of sound ([2]; 308.15 K, x2 = 0) [m/s] | mass density ([2]; 308.15 K, x2 = 0) [kg/m3] | speed of sound ([2]; 313.15 K, x2 = 0) [m/s] | mass density ([2]; 313.15 K, x2 = 0) [kg/m3] | also measured
1 | ClCBr [bromochloromethane] | 1001.2 ± 1.2 m/s | 1933.23 ± 1.1 | 986.1 ± 1.2 m/s | 1921.71 ± 1.1 | 971 ± 1.2 m/s | 1910.15 ± 1.1 | 955.9 ± 1.2 m/s | 1898.51 ± 1.1 | 940.8 ± 1.2 m/s | 1886.82 ± 1.1 | – | – | – | – | – | – | – | – | – | – | –
2 | ClC(Cl)(Cl)Br [bromotrichloromethane] | 917.1 ± 1.2 m/s | 2013.06 ± 1.2 | 903.6 ± 1.2 m/s | 2002.14 ± 1.2 | 890.2 ± 1.2 m/s | 1991.2 ± 1.2 | 876.8 ± 1.2 m/s | 1980.24 ± 1.2 | 863.6 ± 1.2 m/s | 1969.25 ± 1.2 | – | – | – | – | – | – | – | – | – | – | –
3 | ClC(Cl)(Cl)Br [bromotrichloromethane] + ClCBr | – | – | – | – | – | – | – | – | – | – | – | – | – | – | – | – | – | – | – | – | speed of sound ([2]; 293.15 K, x1 = 1): 917.1 ± 1.2 m/s; mass density ([2]; 293.15 K, x1 = 1): 2013.06 ± 1.2 kg/m3; speed of sound ([2]; 298.15 K, x1 = 1): 903.6 ± 1.2 m/s; mass density ([2]; 298.15 K, x1 = 1): 2002.14 ± 1.2 kg/m3; speed of sound ([2]; 303.15 K, x1 = 1): 890.2 ± 1.2 m/s; mass density ([2]; 303.15 K, x1 = 1): 1991.2 ± 1.2 kg/m3; speed of sound ([2]; 308.15 K, x1 = 1): 876.8 ± 1.2 m/s; mass density ([2]; 308.15 K, x1 = 1): 1980.24 ± 1.2 kg/m3; speed of sound ([2]; 313.15 K, x1 = 1): 863.6 ± 1.2 m/s; mass density ([2]; 313.15 K, x1 = 1): 1969.25 ± 1.2 kg/m3
4 | BrCBr [dibromomethane] | 961.8 ± 1.2 m/s | 2491.67 ± 1.8 | 949.2 ± 1.2 m/s | 2478.61 ± 1.8 | 936.6 ± 1.2 m/s | 2465.53 ± 1.8 | 924 ± 1.2 m/s | 2452.42 ± 1.8 | 911.4 ± 1.2 m/s | 2439.26 ± 1.8 | – | – | – | – | – | – | – | – | – | – | –
5 | BrCBr [dibromomethane] + ClC(Cl)(Cl)Br | – | – | – | – | – | – | – | – | – | – | 961.8 ± 1.2 | 2491.67 ± 1.8 | 949.2 ± 1.2 | 2478.61 ± 1.8 | 936.6 ± 1.2 | 2465.53 ± 1.8 | 924 ± 1.2 | 2452.42 ± 1.8 | 911.4 ± 1.2 | 2439.26 ± 1.8 | –
6 | CCCCCCC [heptane] | 1152.6 ± 0.9 m/s and 1152.2 ± 0.9 m/s | 683.84 ± 0.18 | 1131 ± 0.9 m/s and 1130.9 ± 0.9 m/s | 679.6 ± 0.18 | 1109.6 ± 0.9 m/s and 1109.1 ± 0.9 m/s | 675.33 ± 0.18 | 1088.2 ± 0.9 m/s and 1088.1 ± 0.9 m/s | 671.04 ± 0.18 | 1067.1 ± 0.9 m/s and 1066.9 ± 0.9 m/s | 666.71 ± 0.18 | – | – | – | – | – | – | – | – | – | – | –
7 | CCCCCCC [heptane] + BrCBr | – | – | – | – | – | – | – | – | – | – | 1152.2 ± 0.9 | 683.84 ± 0.18 | 1130.9 ± 0.9 | 679.6 ± 0.18 | 1109.1 ± 0.9 | 675.33 ± 0.18 | 1088.1 ± 0.9 | 671.04 ± 0.18 | 1066.9 ± 0.9 | 666.71 ± 0.18 | –
8 | CCCCCCC [heptane] + ClC(Cl)(Cl)Br | – | – | – | – | – | – | – | – | – | – | 1152.6 ± 0.9 | 683.84 ± 0.18 | 1131 ± 0.9 | 679.6 ± 0.18 | 1109.6 ± 0.9 | 675.33 ± 0.18 | 1088.2 ± 0.9 | 671.04 ± 0.18 | 1067.1 ± 0.9 | 666.71 ± 0.18 | –
